According to patent publication US12648946B2, “Combination of antibody-pyrrolobenzodiazepine derivative conjugate and PARP inhibitor” (DAIICHI SANKYO COMPANY, LIMITED, priority 2019, dated 2026):
Read-outs that look alike come from different tables or passages of the source.

How the values were obtained:
[1] = tested on: human pharyngeal cancer cell line FaDu; assay: Cell growth inhibition test (2); assay type: cell-based; settings: 144 h
Description: (§1) The human pharyngeal cancer cell line FaDu obtained from ATCC (American Type Culture Collection) was used for evaluation. Cells were prepared with MEM containing 10% fetal bovine serum (GE Healthcare), MEM Non-Essential Amino Acids Solution (Thermo Fisher Scientific), and Sodium Pyruvate (Thermo Fisher Scientific) (Thermo Fisher Scientific; hereinafter, referred to as EMEM medium) to reach 6.25×10^3 cells/mL, and 80 μL portions of them were added into a 96-well cell culture microplate. After addition of the cells, the cells were cultured at 37° C. and 5% CO2 overnight.
(§2) On the next day, 10 μL portions of pyrrolobenzodiazepine derivative A, B, or C diluted with EMEM medium to 100 pM, 50 pM, 25 pM, 12.5 pM, 6.25 pM, 3.13 pM, 1.56 pM, or 0.78 pM were added to the microplate. To each well without any pyrrolobenzodiazepine derivative, 10 μL of EMEM medium was added. Further, 10 μL portions of olaparib prepared with EMEM medium to reach 1 μM were added to the microplate. To each well without olaparib, 10 μL of EMEM medium was added. Thereafter, the microplate was cultured at 37° C. and 5% CO2 for 6 days. After culturing, the microplate was taken out of the incubator, and left to stand at room temperature for 30 minutes. CellTiter-Glo Luminescent Cell Viability Assay (Promega Corporation) in an amount equivalent to that of the culture solution was added, and stirred using a plate mixer. The microplate was left to stand at room temperature for 10 minutes, and thereafter the amount of emission was measured by using a plate reader (PerkinElmer).
Cell survival rates in wells with derivative A, B, or […] were calculated by using the following formula.
(§3) [formula] • a: Mean value of amounts of emission from wells with derivative A, B, or C • b: Mean value of amounts of emission from wells with medium • IC50 values were calculated by using the following formula.
(§4) [formula] • a: Concentration of derivative A, B, or C, a • b: Concentration of derivative A, B, or C, b • c: Cell survival rate when derivative A, B, or C of concentration a was added • d: Cell survival rate when derivative A, B, or C of concentration b was added • a and b satisfy a>b at points sandwiching a cell survival rate of 50%.
Cell survival rates in wells with derivative A, B, or C added together with 1 μM olaparib were calculated by using the following formula.
[formula] • a: Mean value of amounts of emission from wells with derivative A, B, or C added together with 1 μM olaparib • b: Mean value of amounts of emission from wells with 1 μM olaparib • IC50 values were calculated by using the following formula.
as §4, with “and 1 μM olaparib were” for “was”

[2] = tested on: human lung cancer cell line Calu-6; assay: Cell growth inhibition test (1); assay type: cell-based; settings: for IC50: Calu-6, 144 h
Description: as §1, with “lung” for “pharyngeal”, “Calu-6” for “FaDu”, “1.25×10^4” for “6.25×10^3”
as §2, with “reach 2” for “reach 1”
Cell survival rates in wells with derivative A, B, or C were calculated by using the following formula.
as §3, §4
Cell survival rates in wells with derivative A, B, or C added together with 2 μM olaparib were calculated by using the following formula.
[formula] a: Mean value of amounts of emission from wells with derivative A, B, or C added together with 2 μM olaparib • b: Mean value of amounts of emission from wells with 2 μM olaparib • IC50 values were calculated by using the following formula.
as §4, with “and 2 μM olaparib were” for “was”

## O=C(c1cc(Cc2n[nH]c(=O)c3ccccc23)ccc1F)N1CCN(C(=O)C2CC2)CC1 [olaparib, reference compound]
[1]; 1 μM olaparib alone, 6 days
  inhibition at 1 µM: < 10%
[2]; 144 h, 2 μM olaparib alone, Calu-6, 6 days
  inhibition at 2 µM: < 10%

## COc1ccc(C2=CN3C(=O)c4cc(OC)c(OCCCCCOc5cc6c(cc5OC)C(=O)N5CC7(CC7)C[C@H]5C=N6)cc4NC[C@@H]3C2)cc1 [derivative A, (11a′S)-7′-Methoxy-8′-[(5-{[(11aS)-7-methoxy-2-(4-methoxyphenyl)-5-oxo-5,10,11,11a-tetrahydro-1H-pyrrolo[2,1-c][1,4]benzodiazepin-8-yl]oxy}pentyl)oxy]-1′,11a′-dihydro-5′H-spiro[cyclopropane-1,2′-pyrrolo[2,1-c][1,4]benzodiazepine]-5′-one]
[1]; read-out: IC50, growth-suppressing effect, added singly, FaDu, 6 days (test 2)
  IC50: 8.6 pM
[1]; read-out: IC50, growth-suppressing effect, added together with 1 μM olaparib, FaDu, 6 days
  IC50: 4.4 pM
[2]; read-out: IC50, growth-suppressing effect, added singly, Calu-6, 6 days
  IC50: 6.8 pM
[2]; read-out: IC50, growth-suppressing effect, added together with 2 μM olaparib, Calu-6, 6 days
  IC50: 4.3 pM
